Test results from the NIST ThermoML archive (doi:10.1016/j.jct.2018.03.013).

Test: xn = mol fraction of the nth substance listed
Settings: 100 kPa, Liquid; for speed of sound: Frequency=3 MHz, Linear variable-path acoustic interferometer; for mass density: Pycnometric method

C=C(C)C(=O)OC [methyl methacrylate] + CC#N
Settings | mass density [kg/m3] | speed of sound [m/s]
293.15 K, x2 = 0 | 943.38 | 1200.5
293.15 K, x2 = 0.0688 | 938.34 | 1207.5
293.15 K, x2 = 0.1376 | 932.76 | 1214.3
293.15 K, x2 = 0.1957 | 927.6 | 1220
293.15 K, x2 = 0.2716 | 920.18 | 1227.3
293.15 K, x2 = 0.3344 | 913.41 | 1233.2
293.15 K, x2 = 0.4135 | 903.99 | 1240.5
293.15 K, x2 = 0.4916 | 893.58 | 1247.5
293.15 K, x2 = 0.5649 | 882.66 | 1254.2
293.15 K, x2 = 0.6386 | 870.38 | 1261
293.15 K, x2 = 0.7084 | 857.36 | 1267.7
293.15 K, x2 = 0.7927 | 839.5 | 1276.4
293.15 K, x2 = 0.855 | 824.53 | 1283.5
293.15 K, x2 = 0.9073 | 810.58 | 1290.3
293.15 K, x2 = 0.9497 | 798.21 | 1296.3
298.15 K, x2 = 0 | 937.64 | 1183.6
298.15 K, x2 = 0.0688 | 932.64 | 1190.6
298.15 K, x2 = 0.1376 | 927.09 | 1197.2
298.15 K, x2 = 0.1957 | 921.95 | 1202.7
298.15 K, x2 = 0.2716 | 914.56 | 1209.7
298.15 K, x2 = 0.3344 | 907.81 | 1215.3
298.15 K, x2 = 0.4135 | 898.42 | 1222.3
298.15 K, x2 = 0.4916 | 888.04 | 1229
298.15 K, x2 = 0.5649 | 877.15 | 1235.3
298.15 K, x2 = 0.6386 | 864.91 | 1241.7
298.15 K, x2 = 0.7084 | 851.92 | 1248
298.15 K, x2 = 0.7927 | 834.09 | 1256.2
298.15 K, x2 = 0.855 | 819.15 | 1263
298.15 K, x2 = 0.9073 | 805.23 | 1269.3
298.15 K, x2 = 0.9497 | 792.88 | 1275
303.15 K, x2 = 0 | 931.9 | 1168.5
303.15 K, x2 = 0.0688 | 926.94 | 1175.5
303.15 K, x2 = 0.1376 | 921.42 | 1182
303.15 K, x2 = 0.1957 | 916.3 | 1187.4
303.15 K, x2 = 0.2716 | 908.94 | 1194.1
303.15 K, x2 = 0.3344 | 902.21 | 1199.5
303.15 K, x2 = 0.4135 | 892.85 | 1206.2
303.15 K, x2 = 0.4916 | 882.5 | 1212.6
303.15 K, x2 = 0.5649 | 871.64 | 1218.6
303.15 K, x2 = 0.6386 | 859.43 | 1224.8
303.15 K, x2 = 0.7084 | 846.47 | 1230.8
303.15 K, x2 = 0.7927 | 828.68 | 1238.7
303.15 K, x2 = 0.855 | 813.77 | 1245.1
303.15 K, x2 = 0.9073 | 799.87 | 1251.2
303.15 K, x2 = 0.9497 | 787.55 | 1256.6
308.15 K, x2 = 0 | 926.16 | 1152.6
308.15 K, x2 = 0.0688 | 921.23 | 1159.6
308.15 K, x2 = 0.1376 | 915.74 | 1166
308.15 K, x2 = 0.1957 | 910.65 | 1171.2
308.15 K, x2 = 0.2716 | 903.31 | 1177.8
308.15 K, x2 = 0.3344 | 896.61 | 1183
308.15 K, x2 = 0.4135 | 887.27 | 1189.5
308.15 K, x2 = 0.4916 | 876.95 | 1195.7
308.15 K, x2 = 0.5649 | 866.13 | 1201.5
308.15 K, x2 = 0.6386 | 853.94 | 1207.4
308.15 K, x2 = 0.7084 | 841.01 | 1213.2
308.15 K, x2 = 0.7927 | 823.27 | 1220.8
308.15 K, x2 = 0.855 | 808.39 | 1227.1
308.15 K, x2 = 0.9073 | 794.51 | 1233
308.15 K, x2 = 0.9497 | 782.21 | 1238.2
313.15 K, x2 = 0 | 920.42 | 1135.4
313.15 K, x2 = 0.0688 | 915.52 | 1142.4
313.15 K, x2 = 0.1376 | 910.06 | 1148.7
313.15 K, x2 = 0.1957 | 904.99 | 1153.9
313.15 K, x2 = 0.2716 | 897.68 | 1160.3
313.15 K, x2 = 0.3344 | 891 | 1165.6
313.15 K, x2 = 0.4135 | 881.69 | 1172
313.15 K, x2 = 0.4916 | 871.4 | 1178.1
313.15 K, x2 = 0.5649 | 860.61 | 1183.8
313.15 K, x2 = 0.6386 | 848.45 | 1189.5
313.15 K, x2 = 0.7084 | 835.55 | 1195.2
313.15 K, x2 = 0.7927 | 817.85 | 1202.7
313.15 K, x2 = 0.855 | 803 | 1208.9
313.15 K, x2 = 0.9073 | 789.15 | 1214.7
313.15 K, x2 = 0.9497 | 776.87 | 1219.8
318.15 K, x2 = 0 | 914.67 | 1118.3
318.15 K, x2 = 0.0688 | 909.81 | 1125.1
318.15 K, x2 = 0.1376 | 904.38 | 1131.5
318.15 K, x2 = 0.1957 | 899.33 | 1136.6
318.15 K, x2 = 0.2716 | 892.05 | 1143.1
318.15 K, x2 = 0.3344 | 885.39 | 1148.2
318.15 K, x2 = 0.4135 | 876.11 | 1154.5
318.15 K, x2 = 0.4916 | 865.85 | 1160.5
318.15 K, x2 = 0.5649 | 855.09 | 1166.1
318.15 K, x2 = 0.6386 | 842.96 | 1171.8
318.15 K, x2 = 0.7084 | 830.09 | 1177.3
318.15 K, x2 = 0.7927 | 812.43 | 1184.6
318.15 K, x2 = 0.855 | 797.61 | 1190.7
318.15 K, x2 = 0.9073 | 783.79 | 1196.3
318.15 K, x2 = 0.9497 | 771.53 | 1201.4
